Results published in patent publication US8940795B2, “Plant disease controlling composition and method for controlling plant disease” (Sumitomo Chemical Company, Limited, priority 2010, dated 2015).

Tested on: gray mold fungus (Botrytis cinerea)
Test: Cucumber leaf disk preventive test against gray mold fungus
Type: in vivo
Conditions: 15° C., four days
Experimental: True leaf of cucumber is punched out with cork borer to 13 mm in diameter to prepare a leaf disk. In 24 well microwell plate that is dispensed with 1 ml 0.8% water agar, the leaf disk is placed such that the upper side of the leaf is in an upward direction. Thereto is added 20 micro liter a testing solution prepared by mixing a dimethyl sulfoxide solution of the present compound (racemate) and a dimethyl sulfoxide solution of flutolanil to a predetermined concentration to treat the leaf disk. After confirming that the testing medical solution is dried, conidium of gray mold fungus (Botrytis cinerea) is suspended into potato dextrose broth (DIFCO) in a density of about 10^5 conidium/mL and is then subjected to a spray inoculation. After leaving to stand the leaf disk in a growth chamber set up at 15° C. for four days, an onset area on the leaf is measured and then calculated an onset area rate (hereinafter, referred to as an onset area rate of treated group). The same operation is carried out with 20 micro liter water instead of 20 micro liter a testing medicine solution to calculate an onset area rate (hereinafter, referred to an onset area rate of non-treated group). A preventive value is calculated from the above onset area rate of treated group and the onset area rate of non-treated group by the following equation: Preventive value(%)=100×(A−B)/A wherein […] The same operations as described in Test Example 1 are carried out with zoxamide instead of flutolanil, so as to calculate a preventive value. Also for comparison, the same operations as described in Test Example 1 are carried out with the exception that the testing medicine solution is substituted with a predetermined concentration of each dimethyl sulfoxide solution of the present compound (racemate) or zoxamide, so as to calculate respective preventive values. For comparison, the same operations as described in Test Example 1 are carried out with the exception that the testing medicine solution is substituted with a predetermined concentration of a dimethyl sulfoxide solution of flutolanil, so as to calculate a preventive value.

SMILES	preventive value (%) (flutolanil alone 0.5 ppm)	preventive value (%) (flutolanil alone 5.0 ppm)	preventive value (%) (zoxamide alone 0.5 ppm)	preventive value (%) (zoxamide alone 5.0 ppm)
CC(C)Oc1cccc(NC(=O)c2ccccc2C(F)(F)F)c1 [flutolanil]	10	15		
CCC(C)(NC(=O)c1cc(Cl)c(C)c(Cl)c1)C(=O)CCl (stereo not shown) [zoxamide]			10	15
